24 compounds from US9040545B2, “Heterocyclyl pyrazolopyrimidine analogues as selective JAK inhibitors” (Cellzome Limited, priority 2010, dated 2015) can be followed below.

Bounds are passed on as bounds.

The target of the assay is T1, JAK3 (Homo sapiens, UniProt P52333).
T1 construct: endogenous in cells; host or cells: mixed Molt4/Ramos lysate (1:2)
T1 sequence (P52333 1-1124): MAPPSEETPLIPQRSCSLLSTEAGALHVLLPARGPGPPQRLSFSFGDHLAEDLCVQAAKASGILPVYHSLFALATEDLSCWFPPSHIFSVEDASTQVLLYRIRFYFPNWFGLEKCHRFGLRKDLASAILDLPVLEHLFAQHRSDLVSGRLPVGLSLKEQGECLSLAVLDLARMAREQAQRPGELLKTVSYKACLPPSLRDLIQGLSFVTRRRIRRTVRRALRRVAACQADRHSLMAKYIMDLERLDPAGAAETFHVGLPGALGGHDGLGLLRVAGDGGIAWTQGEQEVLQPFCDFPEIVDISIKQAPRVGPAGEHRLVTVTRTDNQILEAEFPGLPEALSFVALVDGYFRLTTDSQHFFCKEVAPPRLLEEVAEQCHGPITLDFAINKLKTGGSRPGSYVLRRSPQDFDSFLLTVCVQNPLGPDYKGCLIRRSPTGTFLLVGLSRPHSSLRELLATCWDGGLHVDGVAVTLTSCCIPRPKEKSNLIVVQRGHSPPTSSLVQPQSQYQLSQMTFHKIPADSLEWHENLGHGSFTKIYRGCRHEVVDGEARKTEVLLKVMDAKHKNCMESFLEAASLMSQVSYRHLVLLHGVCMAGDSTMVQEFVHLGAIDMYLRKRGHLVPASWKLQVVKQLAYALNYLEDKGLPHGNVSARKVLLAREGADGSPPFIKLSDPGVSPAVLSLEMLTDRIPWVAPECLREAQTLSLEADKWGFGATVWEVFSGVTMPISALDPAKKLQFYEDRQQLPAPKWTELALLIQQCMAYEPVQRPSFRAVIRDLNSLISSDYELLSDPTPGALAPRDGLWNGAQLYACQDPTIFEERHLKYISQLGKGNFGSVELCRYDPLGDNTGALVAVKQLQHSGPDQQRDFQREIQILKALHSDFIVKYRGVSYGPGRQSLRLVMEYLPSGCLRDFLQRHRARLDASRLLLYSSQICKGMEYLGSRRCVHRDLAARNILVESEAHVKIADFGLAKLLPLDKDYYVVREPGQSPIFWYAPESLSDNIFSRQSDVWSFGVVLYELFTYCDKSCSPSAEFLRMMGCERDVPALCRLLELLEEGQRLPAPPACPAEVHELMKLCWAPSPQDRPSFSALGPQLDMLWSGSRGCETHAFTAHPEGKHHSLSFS
Description: Kinobeads assay, JAK3. In kind it is binding. To be noted: mixed Molt4/Ramos lysate, read-out: Inhibition values (IC50) JAK3. Summed up:
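Competition binding in mixed Molt4/Ramos cell lysate (1:2, 10 mg/mL protein) with Kinobeads carrying immobilized aminopyrido-pyrimidine ligand, 3 h in cold room; 9-step 1:3 compound dilution series from 5 mM DMSO stock. Bead-bound JAK2/JAK3 eluted and quantified by antibody dot blot with infrared detection; IC50 from dose-response curves.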

In the case of `Cn1cc(Nc2ncc3cnn(Cc4cccc(N5CCCCC5)c4)c3n2)cn1` [Example 8, N-(1-Methyl-1H-pyrazol-4-yl)-1-(3-(piperidin-1-yl)benzyl)-1H-pyrazolo[3,4-d]pyrimidin-6-amine], the half-maximal inhibitory concentration (IC50) is 100 to 1000 nM.
In the case of `NC(=O)CCn1cc(Nc2ncc3cnn(Cc4cccc(N5CCOCC5)c4)c3n2)cn1` [Example 14, 3-(4-((1-(3-Morpholinobenzyl)-1H-pyrazolo[3,4-d]pyrimidin-6-yl)amino)-1H-pyrazol-1-yl)propanamide] it was under 100 nM; in that of `OCCn1cc(Nc2ncc3cnn(Cc4cc(F)cc(N5CCNCC5)c4)c3n2)cn1` [Example 93, 2-(4-((1-(3-fluoro-5-(piperazin-1-yl)benzyl)-1H-pyrazolo[3,4-d]pyrimidin-6-yl)amino)-1H-pyrazol-1-yl)ethanol], under 100 nM; in that of `Cn1cc(Nc2ncc3cnn(Cc4cccc(N5CCNCC5)c4)c3n2)cn1` [Example 22, N-(1-Methyl-1H-pyrazol-4-yl)-1-(3-(piperazin-1-yl)benzyl)-1H-pyrazolo[3,4-d]pyrimidin-6-amine], under 100 nM.
Regarding `CN(C)CC(F)Cn1cc(Nc2ncc3cnn(Cc4cc(F)cc(N5CCOCC5=O)c4)c3n2)cn1` (stereo not drawn) [Example 97, 4-(3-((6-((1-(3-(dimethylamino)-2-fluoropropyl)-1H-pyrazol-4-yl)amino)-1H-pyrazolo[3,4-d]pyrimidin-1-yl)methyl)-5-fluorophenyl)morpholin-3-one], the IC50 was under 100 nM.
As for `OCCn1cc(Nc2ncc3cnn(Cc4cccc(N5CCOCC5)c4)c3n2)cn1` [Example 5, 2-(4-((1-(3-Morpholinobenzyl)-1H-pyrazolo[3,4-d]pyrimidin-6-yl)amino)-1H-pyrazol-1-yl)ethanol], the IC50 was under 100 nM.
For `O=C(Cn1cc(Nc2ncc3cnn(Cc4cc(F)cc(N5CCOCC5=O)c4)c3n2)cn1)N1CCNCC1` [Example 109, 4-(3-fluoro-5-((6-((1-(2-oxo-2-(piperazin-1-yl)ethyl)-1H-pyrazol-4-yl)amino)-1H-pyrazolo[3,4-d]pyrimidin-1-yl)methyl)phenyl)morpholin-3-one], the IC50 was under 100 nM.
With `C[C@@H]1COCCN1c1cccc(Cn2ncc3cnc(Nc4cnn(C)c4)nc32)n1` [Example 1, (R)—N-(1-Methyl-1H-pyrazol-4-yl)-1-((6-(3-methylmorpholino)pyridin-2-yl)methyl)-1H-pyrazolo[3,4-d]pyrimidin-6-amine] the figure was under 100 nM; with `Cn1cc(Nc2ncc3cnn(Cc4cc(F)cc(-c5cnn(C)c5)c4)c3n2)cn1` [Example 125, 1-(3-fluoro-5-(1-methyl-1H-pyrazol-4-yl)benzyl)-N-(1-methyl-1H-pyrazol-4-yl)-1H-pyrazolo[3,4-d]pyrimidin-6-amine], under 100 nM; with `Cn1cc(Nc2ncc3cnn(Cc4cccc(C(=O)N5CCOCC5)c4)c3n2)cn1` [Example 6, (3-((6-((1-Methyl-1H-pyrazol-4-yl)amino)-1H-pyrazolo[3,4-d]pyrimidin-1-yl)methyl)phenyl)(morpholino)methanone], under 100 nM.
With `CCCn1cc(-c2cccc(Cn3ncc4cnc(Nc5cnn(C)c5)nc43)c2)cn1` [Example 119, N-(1-methyl-1H-pyrazol-4-yl)-1-(3-(1-propyl-1H-pyrazol-4-yl)benzyl)-1H-pyrazolo[3,4-d]pyrimidin-6-amine], the IC50 was under 100 nM.
In the case of `CNC(=O)Cn1cc(Nc2ncc3cnn(Cc4cccc(N5CCOCC5)c4)c3n2)cn1` [Example 12, N-Methyl-2-(4-((1-(3-morpholinobenzyl)-1H-pyrazolo[3,4-d]pyrimidin-6-yl)amino)-1H-pyrazol-1-yl)acetamide] it was under 100 nM; in that of `CN(C)CCCn1cc(Nc2ncc3cnn(Cc4cccc(N5CCOCC5)c4)c3n2)cn1` [Example 4, N-(1-(3-(Dimethylamino)propyl)-1H-pyrazol-4-yl)-1-(3-morpholinobenzyl)-1H-pyrazolo[3,4-d]pyrimidin-6-amine], under 100 nM; in that of `Cn1cc(Nc2ncc3cnn(Cc4cc(C(=O)N5CCOCC5)cc(F)c4F)c3n2)cn1` [Example 98, (3,4-difluoro-5-((6-((1-methyl-1H-pyrazol-4-yl)amino)-1H-pyrazolo[3,4-d]pyrimidin-1-yl)methyl)phenyl)(morpholino)methanone], under 100 nM.
As for `CNCC1(Cn2cc(Nc3ncc4cnn(Cc5cccc(N6CCOCC6)c5)c4n3)cn2)COC1` [Example 41, N-(1-((3-((Methylamino)methyl)oxetan-3-yl)methyl)-1H-pyrazol-4-yl)-1-(3-morpholinobenzyl)-1H-pyrazolo[3,4-d]pyrimidin-6-amine], the IC50 is under 100 nM.
On to `Cn1cc(Nc2ncc3cnn(Cc4cccc(N5CCOCC5)c4F)c3n2)cn1` [Example 21, 1-(2-Fluoro-3-morpholinobenzyl)-N-(1-methyl-1H-pyrazol-4-yl)-1H-pyrazolo[3,4-d]pyrimidin-6-amine], for which the IC50 was under 100 nM.
In the case of `FC(F)Cn1cc(Nc2ncc3cnn(Cc4cccc(N5CCOCC5)c4)c3n2)cn1` [Example 23, N-(1-(2,2-Difluoroethyl)-1H-pyrazol-4-yl)-1-(3-morpholinobenzyl)-1H-pyrazolo[3,4-d]pyrimidin-6-amine] it was under 100 nM; in that of `Cn1cc(Nc2ncc3cnn(Cc4cccc(-c5cn[nH]c5)c4)c3n2)cn1` [Example 118, 1-(3-(1H-pyrazol-4-yl)benzyl)-N-(1-methyl-1H-pyrazol-4-yl)-1H-pyrazolo[3,4-d]pyrimidin-6-amine], under 100 nM.
With `Cn1cc(Nc2ncc3cnn(Cc4c(F)ccc(N5CCOCC5)c4F)c3n2)cn1` [Example 38, 1-(2,6-Difluoro-3-morpholinobenzyl)-N-(1-methyl-1H-pyrazol-4-yl)-1H-pyrazolo[3,4-d]pyrimidin-6-amine] the figure was under 100 nM.
In the case of `Cn1cc(Nc2ncc3cnn(Cc4cccc(N5CCOCC5)c4)c3n2)cn1` [Example 2, N-(1-Methyl-1H-pyrazol-4-yl)-1-(3-morpholinobenzyl)-1H-pyrazolo[3,4-d]pyrimidin-6-amine] it was under 100 nM.
As for `Cn1cc(-c2cccc(Cn3ncc4cnc(Nc5cnn(CCO)c5)nc43)c2F)cn1` [Example 124, 2-(4-((1-(2-fluoro-3-(1-methyl-1H-pyrazol-4-yl)benzyl)-1H-pyrazolo[3,4-d]pyrimidin-6-yl)amino)-1H-pyrazol-1-yl)ethanol], the IC50 is under 100 nM.
With `Cn1cc(Nc2ncc3cnn(Cc4cccc(-c5cnn(C)c5)c4F)c3n2)cn1` [Example 123, 1-(2-fluoro-3-(1-methyl-1H-pyrazol-4-yl)benzyl)-N-(1-methyl-1H-pyrazol-4-yl)-1H-pyrazolo[3,4-d]pyrimidin-6-amine] the figure was under 100 nM.
For `Cn1cc(Nc2ncc3cnn(Cc4cc(N5CCOCC5)cc(F)c4F)c3n2)cn1` [Example 37, 1-(2,3-Difluoro-5-morpholinobenzyl)-N-(1-methyl-1H-pyrazol-4-yl)-1H-pyrazolo[3,4-d]pyrimidin-6-amine], the IC50 is 100 to 1000 nM.
With `O=C1CCCN1CCCn1cc(Nc2ncc3cnn(Cc4cccc(N5CCOCC5)c4)c3n2)cn1` [Example 30, 1-(3-(4-((1-(3-Morpholinobenzyl)-1H-pyrazolo[3,4-d]pyrimidin-6-yl)amino)-1H-pyrazol-1-yl)propyl)pyrrolidin-2-one], the IC50 is under 100 nM.

The term IC50 denotes the concentration needed to halve the response being measured.
